Assay results from PubChem BioAssay AID330 (DTP/NCI, 2004).
Several values for one entry are separate records, joined by “and”; a condition that tells them apart may be missing. Equal values may be shown once. Inconclusive results and toxic doses are left out.

Tested on: P388 leukemia ip, CD2F1 mice, survival T/C
Experiment: NCI In Vivo Anticancer Drug Screen. Data for tumor model P388 Leukemia (intraperitoneal) in CD2F1 (CDF1) mice
Details: endpoint: median survival time, higher = longer survival
Procedure, shortened: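 Mice carrying the transplanted tumor received test compound or vehicle. Survival was recorded in each group, and the value is the treated-group measurement divided by that of the vehicle-treated control group.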

[1] = dose: 25.0 mg/kg/injection, schedule: Q01DX009 (ip), vehicle: Klucel (hydroxypropylcellulose) (HPC)
[2] = dose: 50.0 mg/kg/injection, schedule: Q01DX009 (ip), vehicle: Klucel (hydroxypropylcellulose) (HPC)
[3] = dose: 50.0 mg/kg/injection, schedule: Q01DX005 (ip), vehicle: Klucel (hydroxypropylcellulose) (HPC)
[4] = dose: 100.0 mg/kg/injection, schedule: Q01DX005 (ip), vehicle: Klucel (hydroxypropylcellulose) (HPC)
[5] = dose: 200.0 mg/kg/injection, schedule: Q01DX005 (ip), vehicle: Klucel (hydroxypropylcellulose) (HPC)
[6] = dose: 50.0 mg/kg/injection, schedule: Q01DX005 (ip), vehicle: saline with Tween-80
[7] = dose: 100.0 mg/kg/injection, schedule: Q01DX005 (ip), vehicle: saline with Tween-80
[8] = dose: 200.0 mg/kg/injection, schedule: Q01DX005 (ip), vehicle: saline with Tween-80
[9] = dose: 6.25 mg/kg/injection, schedule: Q01DX005 (ip), vehicle: saline with Tween-80
[10] = dose: 12.5 mg/kg/injection, schedule: Q01DX005 (ip), vehicle: saline with Tween-80
[11] = dose: 25.0 mg/kg/injection, schedule: Q01DX005 (ip), vehicle: saline with Tween-80
[12] = dose: 50.0 mg/kg/injection, schedule: Q01DX009 (ip), vehicle: saline with Tween-80
[13] = dose: 100.0 mg/kg/injection, schedule: Q01DX009 (ip), vehicle: saline with Tween-80
[14] = dose: 25.0 mg/kg/injection, schedule: Q01DX009 (ip), vehicle: saline with Tween-80

With `O=C1C=C(CCC2=CC(=O)c3ccccc3C2=O)C(=O)c2ccccc21` the T/C (dose: 60.0 mg/kg/injection, schedule: Q01DX005 (ip), vehicle: saline with Tween-80) was 100 % of control and the T/C (dose: 120.0 mg/kg/injection, schedule: Q01DX005 (ip), vehicle: saline with Tween-80) was 94 % of control.

`c1ccc(-c2nn[nH]n2)cc1` was tested, and the T/C [1] was 100 % of control, the T/C [2] was 100 % of control and the T/C (dose: 100.0 mg/kg/injection, schedule: Q01DX009 (ip), vehicle: Klucel (hydroxypropylcellulose) (HPC)) was 118 % of control. For the same compound, the T/C (dose: 200.0 mg/kg/injection, schedule: Q01DX009 (ip), vehicle: Klucel (hydroxypropylcellulose) (HPC)) was 100 % of control.

`COc1cc2c(cc1NC(=O)N(CCCl)N=O)-c1ccccc1C2` was tested, and the T/C (dose: 350.0 mg/kg/injection, schedule: Q04DX003 (ip), vehicle: Klucel (hydroxypropylcellulose) (HPC)) was 163 % of control.

With `CCC1OCN2CCCCC12` (stereo unspecified) the T/C (dose: 12.5 mg/kg/injection, schedule: Q01DX005 (ip), vehicle: saline) was 100 % of control and 105 % of control, the T/C (dose: 25.0 mg/kg/injection, schedule: Q01DX005 (ip), vehicle: saline) was 107 % of control and 108 % of control and the T/C (dose: 50.0 mg/kg/injection, schedule: Q01DX005 (ip), vehicle: saline) was 105 % of control and 107 % of control and 108 % of control. The T/C (dose: 100.0 mg/kg/injection, schedule: Q01DX005 (ip), vehicle: saline) was 108 % of control and 110 % of control.

With `CC1(C)N=C(N)N=C(N)N1c1cccc(Cl)c1Cl` the T/C (dose: 5.0 mg/kg/injection, schedule: Q01DX009 (ip), vehicle: saline with Tween-80) was 100 % of control, the T/C (dose: 5.0 mg/kg/injection, schedule: Q04DX003 (ip), vehicle: saline) was 95 % of control and the T/C (dose: 10.0 mg/kg/injection, schedule: Q01DX009 (ip), vehicle: saline with Tween-80) was 108 % of control. The T/C (dose: 10.0 mg/kg/injection, schedule: Q04DX003 (ip), vehicle: saline) was 95 % of control, the T/C (dose: 20.0 mg/kg/injection, schedule: Q01DX009 (ip), vehicle: saline with Tween-80) was 121 % of control and the T/C (dose: 20.0 mg/kg/injection, schedule: Q04DX003 (ip), vehicle: saline) was 116 % of control.

`COc1ccc2c(c1)c(COC(C)=O)c(C)c[n+]2[O-]` was tested, and the T/C [3] was 100 % of control, the T/C [4] was 104 % of control and the T/C [5] was 88 % of control.

In the case of `CCOC(=O)CCC(=O)Oc1ccc2c(c1)C(=O)c1ccc(OC(=O)CCC(=O)OCC)cc1C2=O`, the T/C (dose: 1.87 mg/kg/injection, schedule: Q01DX005 (ip), vehicle: Klucel (hydroxypropylcellulose) (HPC)) is reported as 99 % of control, the T/C (dose: 3.75 mg/kg/injection, schedule: Q01DX005 (ip), vehicle: Klucel (hydroxypropylcellulose) (HPC)) is reported as 99 % of control and the T/C (dose: 7.5 mg/kg/injection, schedule: Q01DX005 (ip), vehicle: Klucel (hydroxypropylcellulose) (HPC)) is reported as 99 % of control and 91 % of control.

For `CCCCC(CC)CN(CC(CC)CCCC)C(=O)C(C)O` (stereo unspecified), the T/C [6] was 105 % of control, the T/C [7] was 103 % of control and the T/C [8] was 108 % of control.

With `CCC(=O)Nc1ccc(C(=O)C(C)=O)cc1` the T/C (dose: 8.0 mg/kg/injection, schedule: Q01DX009 (ip), vehicle: saline with Tween-80) was 104 % of control, the T/C (dose: 16.0 mg/kg/injection, schedule: Q01DX009 (ip), vehicle: saline with Tween-80) was 104 % of control and the T/C (dose: 32.0 mg/kg/injection, schedule: Q01DX009 (ip), vehicle: saline with Tween-80) was 99 % of control.

In the case of `CCN(CC)CCNc1ccc(COC(C)=O)c2sc3ccccc3c(=O)c12`, the T/C [9] is reported as 109 % of control and 123 % of control, the T/C [10] is reported as 121 % of control and the T/C [6] is reported as 118 % of control.

For `FC(F)(F)C1(C(F)(F)F)O[P+]2(OC(C(F)(F)F)(C(F)(F)F)c3ccccc32)c2ccccc21`, the T/C [3] was 97 % of control, the T/C [4] was 105 % of control and the T/C [5] was 106 % of control.

In the case of `O=C(NC1CCCCC1)OCC1OC(n2cnc3c(=O)[nH]cnc32)C(OC(=O)NC2CCCCC2)C1OC(=O)NC1CCCCC1` (stereo unspecified), the T/C [9] is reported as 98 % of control, the T/C [10] is reported as 90 % of control and the T/C [11] is reported as 90 % of control.

`Cc1ccc(C)c2c1C(O)(C#Cc1ccccc1)c1ccccc1C2(O)C#Cc1ccccc1` (stereo unspecified) was tested, and the T/C [12] was 86 % of control and the T/C [13] was 86 % of control.

In the case of `O=[N+]([O-])c1cccc(C(O)C=C(C(F)(F)F)C(F)(F)F)c1` (stereo unspecified), the T/C [14] is reported as 100 % of control, the T/C (dose: 25.0 mg/kg/injection, schedule: Q04DX003 (ip), vehicle: saline) is reported as 100 % of control and the T/C (dose: 33.0 mg/kg/injection, schedule: Q01DX009 (ip), vehicle: saline with Tween-80) is reported as 109 % of control. The T/C [12] was 113 % of control, the T/C (dose: 50.0 mg/kg/injection, schedule: Q04DX003 (ip), vehicle: saline) was 95 % of control and the T/C (dose: 75.0 mg/kg/injection, schedule: Q01DX009 (ip), vehicle: saline with Tween-80) was 113 % of control. The T/C [13] was 113 % of control and the T/C (dose: 100.0 mg/kg/injection, schedule: Q04DX003 (ip), vehicle: saline) was 100 % of control.

For `C/C(=N\NC(=O)c1ccncc1)c1cccc(/C(C)=N/NC(=O)c2ccncc2)n1.O=S(=O)([O-])[O-].[Fe+2]`, the T/C [10] was 97 % of control, the T/C [11] was 100 % of control and the T/C [6] was 87 % of control and 95 % of control.

In the case of `O=C(CCN1CC1)Nc1ccc(NC(=O)CCN2CC2)cc1`, the T/C (dose: 10.0 mg/kg/injection, schedule: Q04DX003 (ip), vehicle: Klucel (hydroxypropylcellulose) (HPC)) is reported as 198 % of control and the T/C (dose: 20.0 mg/kg/injection, schedule: Q04DX003 (ip), vehicle: Klucel (hydroxypropylcellulose) (HPC)) is reported as 227 % of control.

With `COc1cc2c(c(OC)c1O)-c1ccc(SC)c(=O)cc1C(NC(C)=O)CC2` (stereo unspecified) the T/C (dose: 1.25 mg/kg/injection, schedule: Q01DX009 (ip), vehicle: saline) was 117 % of control.

For `CC(C)NC(=O)OCc1c(COC(=O)NC(C)C)c(-c2ccc(Cl)c(Cl)c2)n2c1SCC2`, the T/C [11] was 105 % of control, the T/C [6] was 115 % of control and the T/C [7] was 116 % of control and 121 % of control. The T/C [8] was 117 % of control and 123 % of control and the T/C (dose: 400.0 mg/kg/injection, schedule: Q01DX005 (ip), vehicle: saline with Tween-80) was 122 % of control.

In the case of `CCOC(=O)Nc1c(CC(C)(C)O)n[nH]c1C`, the T/C [6] is reported as 103 % of control, the T/C [7] is reported as 100 % of control and the T/C [8] is reported as 100 % of control.

`OCC(Cl)Cc1cnc[nH]1` (stereo unspecified) was tested, and the T/C [12] was 102 % of control, the T/C [13] was 99 % of control and the T/C (dose: 200.0 mg/kg/injection, schedule: Q01DX009 (ip), vehicle: saline with Tween-80) was 93 % of control.

With `OC1=CC(=S)NC2CCCCC12` (stereo unspecified) the T/C [3] was 86 % of control, the T/C [4] was 102 % of control and the T/C [5] was 102 % of control.

`Cc1ccc2c(c1)sc1nc(C)cc(=O)n12` was tested, and the T/C (dose: 10.0 mg/kg/injection, schedule: Q04DX002 (ip), vehicle: Klucel (hydroxypropylcellulose) (HPC)) was 106 % of control, the T/C (dose: 20.0 mg/kg/injection, schedule: Q04DX002 (ip), vehicle: Klucel (hydroxypropylcellulose) (HPC)) was 97 % of control and the T/C (dose: 40.0 mg/kg/injection, schedule: Q04DX002 (ip), vehicle: Klucel (hydroxypropylcellulose) (HPC)) was 95 % of control.

`NC(=O)NC1CCCCCC1` was tested, and the T/C (dose: 100.0 mg/kg/injection, schedule: Q04DX003 (ip), vehicle: saline with Tween-80) was 100 % of control, the T/C (dose: 200.0 mg/kg/injection, schedule: Q04DX003 (ip), vehicle: saline with Tween-80) was 100 % of control and the T/C (dose: 400.0 mg/kg/injection, schedule: Q04DX003 (ip), vehicle: saline with Tween-80) was 109 % of control.

`Cc1cccc(NC(=O)CS)n1` was tested, and the T/C [1] was 98 % of control and the T/C [2] was 95 % of control.

With `CC(C)(O)c1ccccc1S(=O)c1ccccc1C(C)(C)O` the T/C (dose: 100.0 mg/kg/injection, schedule: Q01DX001 (ip), vehicle: saline with Tween-80) was 93 % of control, the T/C (dose: 200.0 mg/kg/injection, schedule: Q01DX001 (ip), vehicle: saline with Tween-80) was 95 % of control and the T/C (dose: 400.0 mg/kg/injection, schedule: Q01DX001 (ip), vehicle: saline with Tween-80) was 98 % of control.

In the case of `COCCCn1c(C(Cl)(Cl)Cl)nn2c(=O)c3ccccc3nc2c1=O`, the T/C (dose: 6.25 mg/kg/injection, schedule: Q01DX009 (ip), vehicle: saline with Tween-80) is reported as 96 % of control, the T/C (dose: 12.5 mg/kg/injection, schedule: Q01DX009 (ip), vehicle: saline with Tween-80) is reported as 91 % of control and the T/C [14] is reported as 100 % of control.

`NC(C(=O)O)C1=CCCCCC1` (stereo unspecified) was tested, and the T/C (dose: 25.0 mg/kg/injection, schedule: Q01DX005 (ip), vehicle: Klucel (hydroxypropylcellulose) (HPC)) was 100 % of control, the T/C [3] was 101 % of control and the T/C [4] was 106 % of control. The T/C [5] was 101 % of control.
